PubChem BioAssay AID1919005 (Molecular Pharmacology Branch, DTP, NCI, 2023)
Values belong to the compound of their own block, whether it stands above or below them.

System: 855422-203-R-J1-PDC complex spheroid growth
Assay: Anticancer human tumor 855422-203-R-J1-PDC patient-derived bladder carcinoma cell line growth inhibition [AhR]
Conditions: for viability, T/C: stronger effect = lower value
Summary of the method: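 Spheroids combined tumor cells with HUVEC endothelial cells and human MSCs as stroma. AhR antagonists were paired with standard or investigational drugs, each dosed in half-log steps down from near clinical Cmax, or from 10 microM where Cmax was unknown.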

[1] = curve of first compound, second compound 0.1 µM
[2] = curve of first compound, second compound 0.316 µM
[3] = curve of first compound, second compound 1 µM
[4] = curve of first compound, second compound 3.16 µM
[5] = curve of first compound, second compound 10 µM
[6] = second compound 0.1 µM, first compound 0.00949 µM
[7] = second compound 0.1 µM, first compound 0.03 µM
[8] = second compound 0.1 µM, first compound 0.0949 µM
[9] = second compound 0.1 µM, first compound 0.3 µM
[10] = second compound 0.316 µM, first compound 0.00949 µM
[11] = second compound 0.316 µM, first compound 0.03 µM
[12] = second compound 0.316 µM, first compound 0.0949 µM
[13] = second compound 0.316 µM, first compound 0.3 µM
[14] = second compound 1 µM, first compound 0.00949 µM
[15] = second compound 1 µM, first compound 0.03 µM
[16] = second compound 1 µM, first compound 0.0949 µM
[17] = second compound 1 µM, first compound 0.3 µM
[18] = second compound 3.16 µM, first compound 0.00949 µM
[19] = second compound 3.16 µM, first compound 0.03 µM
[20] = second compound 3.16 µM, first compound 0.0949 µM
[21] = second compound 3.16 µM, first compound 0.3 µM
[22] = second compound 10 µM, first compound 0.00949 µM
[23] = second compound 10 µM, first compound 0.03 µM
[24] = second compound 10 µM, first compound 0.0949 µM
[25] = second compound 10 µM, first compound 0.3 µM
[26] = second compound 0.1 µM, first compound 0.0316 µM
[27] = second compound 0.1 µM, first compound 0.1 µM
[28] = second compound 0.1 µM, first compound 0.316 µM
[29] = second compound 0.1 µM, first compound 1 µM
[30] = second compound 0.1 µM, first compound 3.16 µM
[31] = second compound 0.1 µM, first compound 10 µM
[32] = second compound 0.316 µM, first compound 0.0316 µM
[33] = second compound 0.316 µM, first compound 0.1 µM
[34] = second compound 0.316 µM, first compound 0.316 µM
[35] = second compound 0.316 µM, first compound 1 µM
[36] = second compound 0.316 µM, first compound 3.16 µM
[37] = second compound 0.316 µM, first compound 10 µM
[38] = second compound 1 µM, first compound 0.0316 µM
[39] = second compound 1 µM, first compound 0.1 µM
[40] = second compound 1 µM, first compound 0.316 µM
[41] = second compound 1 µM, first compound 1 µM
[42] = second compound 1 µM, first compound 3.16 µM
[43] = second compound 1 µM, first compound 10 µM
[44] = second compound 3.16 µM, first compound 0.0316 µM
[45] = second compound 3.16 µM, first compound 0.1 µM
[46] = second compound 3.16 µM, first compound 0.316 µM
[47] = second compound 3.16 µM, first compound 1 µM
[48] = second compound 3.16 µM, first compound 3.16 µM
[49] = second compound 3.16 µM, first compound 10 µM
[50] = second compound 10 µM, first compound 0.0316 µM
[51] = second compound 10 µM, first compound 0.1 µM
[52] = second compound 10 µM, first compound 0.316 µM
[53] = second compound 10 µM, first compound 1 µM
[54] = second compound 10 µM, first compound 3.16 µM
[55] = second compound 10 µM, first compound 10 µM
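Note: spheroids exposed to agents for seven days before readout.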
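Throughout, for viability, T/C: percent of DMSO vehicle control luminescence viability.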

IC50 [1]: 0.0181 µM
IC50 [2]: 0.0155 µM
IC50 [3]: 0.0115 µM
IC50 [4]: 0.00701 µM
IC50 [5]: 0.00543 µM
SMILES: CCc1c2c(nc3ccc(O)cc13)-c1cc3c(c(=O)n1C2)COC(=O)[C@]3(O)CC + Cc1ccccc1N=Nc1ccc(NC(=O)c2ccnn2C)c(C)c1
viability, T/C (second compound 0.1 µM, first compound 0.000949 µM): 107%
viability, T/C (second compound 0.1 µM, first compound 0.003 µM): 98.3%
viability, T/C [6]: 75.5%
viability, T/C [7]: 29.6%
viability, T/C [8]: 17.4%
viability, T/C [9]: 11.5%
viability, T/C (second compound 0.316 µM, first compound 0.000949 µM): 98.3%
viability, T/C (second compound 0.316 µM, first compound 0.003 µM): 93.7%
viability, T/C [10]: 68.1%
viability, T/C [11]: 25.2%
viability, T/C [12]: 14.6%
viability, T/C [13]: 9.09%
viability, T/C (second compound 1 µM, first compound 0.000949 µM): 102%
viability, T/C (second compound 1 µM, first compound 0.003 µM): 95.3%
viability, T/C [14]: 55.5%
viability, T/C [15]: 20.7%
viability, T/C [16]: 14%
viability, T/C [17]: 9.24%
viability, T/C (second compound 3.16 µM, first compound 0.000949 µM): 92.3%
viability, T/C (second compound 3.16 µM, first compound 0.003 µM): 81.8%
viability, T/C [18]: 36.8%
viability, T/C [19]: 21.7%
viability, T/C [20]: 13%
viability, T/C [21]: 7.68%
viability, T/C (second compound 10 µM, first compound 0.000949 µM): 76.5%
viability, T/C (second compound 10 µM, first compound 0.003 µM): 73.4%
viability, T/C [22]: 28.1%
viability, T/C [23]: 22%
viability, T/C [24]: 13.7%
viability, T/C [25]: 9.18%

IC50 [1]: > 10 µM
IC50 [2]: > 10 µM
IC50 [3]: > 10 µM
IC50 [4]: > 10 µM
IC50 [5]: > 10 µM
SMILES: COc1ccc([C@@H](O)c2cc(-c3ncnc4cc(N5CCOCC5)ccc34)c(F)cc2Cl)nn1 + CC(CO)NC(=O)c1cc(-c2ccc(Cl)cc2)nn(-c2cnn(C)c2)c1=O
viability, T/C [26]: 94.1%
viability, T/C [27]: 85.3%
viability, T/C [28]: 84.8%
viability, T/C [29]: 86.3%
viability, T/C [30]: 74.7%
viability, T/C [31]: 58.4%
viability, T/C [32]: 96.4%
viability, T/C [33]: 96.6%
viability, T/C [34]: 86%
viability, T/C [35]: 74.5%
viability, T/C [36]: 74.6%
viability, T/C [37]: 54.6%
viability, T/C [38]: 85.3%
viability, T/C [39]: 90.6%
viability, T/C [40]: 92.3%
viability, T/C [41]: 86.9%
viability, T/C [42]: 72.7%
viability, T/C [43]: 55.4%
viability, T/C [44]: 91.5%
viability, T/C [45]: 88.5%
viability, T/C [46]: 98.9%
viability, T/C [47]: 78.5%
viability, T/C [48]: 69.6%
viability, T/C [49]: 54%
viability, T/C [50]: 93.5%
viability, T/C [51]: 103%
viability, T/C [52]: 82%
viability, T/C [53]: 84.2%
viability, T/C [54]: 71%
viability, T/C [55]: 54.4%

IC50 (compound alone, run of 06/06/2022): 5.43 µM [middle of 22 runs]
SMILES: Cc1cncc(-c2nc(NCCc3c[nH]c4ccccc34)c3ncn(C(C)C)c3n2)c1
viability, T/C (compound 0.1 µM): 92.2% [middle of 19 runs]
viability, T/C (compound 1 µM): 86.3% [middle of 20 runs]

IC50 [1]: > 10 µM
IC50 [2]: > 10 µM
IC50 [3]: > 10 µM
IC50 [4]: > 10 µM
IC50 [5]: > 10 µM
SMILES: CC(C)c1c(-c2ccccc2)nc2c(C#N)c[nH]n2c1=O + CC(CO)NC(=O)c1cc(-c2ccc(Cl)cc2)nn(-c2cnn(C)c2)c1=O
viability, T/C [26]: 103%
viability, T/C [27]: 100%
viability, T/C [28]: 95.2%
viability, T/C [29]: 85.6%
viability, T/C [30]: 92.4%
viability, T/C [31]: 91.8%
viability, T/C [32]: 93.1%
viability, T/C [33]: 105%
viability, T/C [34]: 95.8%
viability, T/C [35]: 105%
viability, T/C [36]: 98.8%
viability, T/C [37]: 92%
viability, T/C [38]: 103%
viability, T/C [39]: 106%
viability, T/C [40]: 104%
viability, T/C [41]: 99.8%
viability, T/C [42]: 99.6%
viability, T/C [43]: 96.5%
viability, T/C [44]: 97.3%
viability, T/C [45]: 106%
viability, T/C [46]: 99.2%
viability, T/C [47]: 93.6%
viability, T/C [48]: 91.3%
viability, T/C [49]: 110%
viability, T/C [50]: 86.9%
viability, T/C [51]: 90.9%
viability, T/C [52]: 91.7%
viability, T/C [53]: 98%
viability, T/C [54]: 93%
viability, T/C [55]: 92.1%

IC50 [1]: > 3 µM
IC50 [2]: > 3 µM
IC50 [3]: > 3 µM
IC50 [4]: > 3 µM
IC50 [5]: > 3 µM
SMILES: CCN(c1cc(-c2ccc(CN3CCOCC3)cc2)cc(C(=O)NCc2c(C)cc(C)[nH]c2=O)c1C)C1CCOCC1 + Cc1ccccc1N=Nc1ccc(NC(=O)c2ccnn2C)c(C)c1
viability, T/C [6]: 105%
viability, T/C [7]: 93.4%
viability, T/C [8]: 93.2%
viability, T/C [9]: 91.2%
viability, T/C (second compound 0.1 µM, first compound 0.949 µM): 91.1%
viability, T/C (second compound 0.1 µM, first compound 3 µM): 87.5%
viability, T/C [10]: 93.7%
viability, T/C [11]: 93.2%
viability, T/C [12]: 92.6%
viability, T/C [13]: 97.3%
viability, T/C (second compound 0.316 µM, first compound 0.949 µM): 87%
viability, T/C (second compound 0.316 µM, first compound 3 µM): 85.3%
viability, T/C [14]: 105%
viability, T/C [15]: 98.8%
viability, T/C [16]: 95.6%
viability, T/C [17]: 96.3%
viability, T/C (second compound 1 µM, first compound 0.949 µM): 92.8%
viability, T/C (second compound 1 µM, first compound 3 µM): 85.3%
viability, T/C [18]: 91.3%
viability, T/C [19]: 90.2%
viability, T/C [20]: 84.3%
viability, T/C [21]: 87.1%
viability, T/C (second compound 3.16 µM, first compound 0.949 µM): 83.6%
viability, T/C (second compound 3.16 µM, first compound 3 µM): 82.3%
viability, T/C [22]: 84.2%
viability, T/C [23]: 76.8%
viability, T/C [24]: 79.8%
viability, T/C [25]: 77.8%
viability, T/C (second compound 10 µM, first compound 0.949 µM): 71.3%
viability, T/C (second compound 10 µM, first compound 3 µM): 72.4%

IC50 [1]: > 10 µM
IC50 [2]: > 10 µM
IC50 [3]: > 10 µM
IC50 [4]: > 10 µM
IC50 [5]: > 10 µM
SMILES: COc1cc(Nc2ncc3c(n2)-c2ccc(Cl)cc2C(c2c(F)cccc2OC)=NC3)ccc1C(=O)O + Cc1ccccc1N=Nc1ccc(NC(=O)c2ccnn2C)c(C)c1
viability, T/C [26]: 109%
viability, T/C [27]: 108%
viability, T/C [28]: 88.9%
viability, T/C [29]: 85.1%
viability, T/C [30]: 77.7%
viability, T/C [31]: 73%
viability, T/C [32]: 105%
viability, T/C [33]: 109%
viability, T/C [34]: 93.4%
viability, T/C [35]: 92.8%
viability, T/C [36]: 85.9%
viability, T/C [37]: 68.7%
viability, T/C [38]: 114%
viability, T/C [39]: 113%
viability, T/C [40]: 98.7%
viability, T/C [41]: 84.3%
viability, T/C [42]: 78.1%
viability, T/C [43]: 76.8%
viability, T/C [44]: 105%
viability, T/C [45]: 106%
viability, T/C [46]: 87.3%
viability, T/C [47]: 79.4%
viability, T/C [48]: 79.5%
viability, T/C [49]: 68.3%
viability, T/C [50]: 87.8%
viability, T/C [51]: 88.8%
viability, T/C [52]: 81.7%
viability, T/C [53]: 89.7%
viability, T/C [54]: 79.2%
viability, T/C [55]: 71.2%
